Data set [1] deals with iPSC-derived M2 macrophages. As to the kind of experiment: Fluorescent phagocytosis screening assay, iPSC-derived M2 macrophages against glioma cells. The data set is classed as cell-based, human. The following applies: for screen of drug libraries and known inhibitors for promoters of macrophage phagocytosis: hit: glioma cells and lung ADC cells.
The subject of data set [2] is H1002 and H146 lung cancer cells. As to the kind of experiment: Cell titer viability assay on lung cancer cells. The data set is classed as cell-based, human. The following applies: indicated concentrations, 72 hours, n=3. The method, then:
(A) Effects of BACE1 inhibitors on lung cancer cell proliferation. H1002 and H146 lung cancer cells were treated with the indicated concentrations of the BACE1 inhibitor AZD3293, MK-8931, AZD3839, or PF-06751979 (PF) for 72 hours. Cell viability was assessed by cell titer assay (n=3). (B-D) A preclinical trial of MK-8931 for lung cancer treatment in xenograft models. H1002 lung cancer cells (5×106) were transplanted into mouse right flank through subcutaneous injection to establish subcutaneous lung cancer xenografts. […] Tumors dissected from mice of each group were photographed (C) and weighed (D). […] Data are shown as mean SEM. p **<0.01, Student's t-test.

For data set [3] the following is noted: patients, Phase I to Phase III; cited from earlier work.

For the compound `CC#Cc1cncc(-c2ccc3c(c2)[C@@]2(N=C(C)C(N)=N2)[C@]2(CC[C@@H](OC)CC2)C3)c1` [AZD3293], in data set [1], the “macrophage phagocytosis against cancer cells” value is given as “promotes macrophage phagocytosis against cancer cells”; the “screen of drug libraries and known inhibitors for promoters of macrophage phagocytosis: hit” value is on record as “hits”. Besides, in data set [2], the “lung cancer cell proliferation (cell viability)” value (“lung cancer cell proliferation” below) is “suppressed lung cancer cell proliferation”. In addition, in data set [3], the “tolerability / safety in AD clinical trials” value is “very safe for patients”.

Consider `NC1=N[C@@](c2cccc(-c3cncnc3)c2)(c2ccnc(C(F)F)c2)c2cccc(F)c21` [AZD3839], for which, in data set [1], the “screen of drug libraries and known inhibitors for promoters of macrophage phagocytosis: hit” value was “hits”. In data set [2], the “lung cancer cell proliferation” value is “suppressed lung cancer cell proliferation”.

Consider `Cn1cnc2c(F)c(Nc3ccc(Br)cc3Cl)c(C(=O)NOCCO)cc21` [AZD6244], for which the “screen of drug libraries and known inhibitors for promoters of macrophage phagocytosis: hit” value in data set [1] is on record as “hits”.

Take `C[C@@]1(c2nc(NC(=O)c3ncc(C(F)(F)F)cc3Cl)ccc2F)CO[C@@](C)(C(F)(F)F)C(N)=N1` [CNP520]: in data set [1], the “macrophage phagocytosis against cancer cells” value is “promotes macrophage phagocytosis against cancer cells”; the “screen of drug libraries and known inhibitors for promoters of macrophage phagocytosis: hit” value is given as “hits”. Further, the “tolerability / safety in AD clinical trials” value in data set [3] is “very safe for patients”.

As for `NC1=N[C@@]2(c3cc(NC(=O)c4cnc(C(F)F)cn4)ccc3F)CO[C@H](C(F)(F)F)[C@H]2CS1` [E2609], in data set [1], the “macrophage phagocytosis against cancer cells” value was “promotes macrophage phagocytosis against cancer cells”; the “screen of drug libraries and known inhibitors for promoters of macrophage phagocytosis: hit” value was “hits”.

With `C[C@@]1(c2cc(NC(=O)c3ccc(C#N)cn3)ccc2F)C=CSC(N)=N1` [JNJ-54861911], the “screen of drug libraries and known inhibitors for promoters of macrophage phagocytosis: hit” value in data set [1] was “hits”.

For `CS[C@@]1(C(=O)Nc2ccc3[nH]nc(-c4ccc(OC(C)C)nc4)c3c2)CCN(CC(=O)N2CC=C(c3ccc(-c4ncn(C)n4)cc3)CC2)C1` [MK-8353], the “screen of drug libraries and known inhibitors for promoters of macrophage phagocytosis: hit” value in data set [1] was “hits”.

For the compound `C[C@H]1C[C@H]2CSC(N)=N[C@@]2(c2nc(NC(=O)c3ccc(OC(F)F)cn3)cs2)CO1` [PF-06751979], the “screen of drug libraries and known inhibitors for promoters of macrophage phagocytosis: hit” value in data set [1] was “hits”. In addition, the “lung cancer cell proliferation” value in data set [2] is “suppressed lung cancer cell proliferation”.
